{
  "source": "patent US5053006A",
  "about": "“Method for the permanent occlusion of arteries” (priority 1990, dated 1991)",
  "key": {"[1]": {"test_system": "middle cerebral artery", "quoted_text": "In order to conduct irradiation of the rat middle cerebral artery at normal blood pressure, oral intubation was performed and mechanical ventilation was initiated after paralysis with pancuronium bromide. The rat was then placed on a tiltable stereotaxic frame, and the middle cerebral artery was exposed through a subtemporal approach. The right temporalis musculature was reflected anteriorally, and a 2×2 mm subtemporal craniotomy was carried out with the aid of a high-speed drill under a dissecting microscope, leaving the middle cerebral artery exposed and the dura intact at the level of the olfactory tract. Rose bengal dye (2 mg in 0.133 ml saline per 100 g animal weight) was administered intravenously, resulting in a blood concentration of 340 μM.\nThe right middle cerebral artery, at a point just distal to the olfactory branches, was irradiated with the beam of a tunable argon ion laser (Lexel Model 95, Cooper LaserSonics, Santa Clara, CA), operated at 514.5 nm in the continuous mode at a power level of 50 mW. The beam was focused longitudinally onto the middle cerebral artery with two cylindrical lenses, both of 30 cm focal length. […] During irradiation, the irradiated segment appeared orange, owing to rose bengal fluorescence in the flowing blood stream. […]"}, "[2]": {"test_system": "corneal neovasculature", "assay_type": "in vivo, New Zealand white rabbit", "description": "Nine New Zealand white strain rabbits weighting 1 to 2 kg were rendered hypercholesterolemic by foods that contained high levels of cholesterol, as described in Stock et. al., Arch. Ophthalmol., 103:726-730, 1985; and Mendelsohn et al., Ophthalmic Surg., 17:502-508, 1986. Eight days after commencement of the high-cholesterol diet, corneal sutures were implanted in both eyes according to the surgical procedure described in Mendelsohn et al., Ophthalmic Surg., 17:502-508, 1986.\nOn day 22, slit-lamp photographs and fluorescein angiograms were obtained of all corneas (Mendelsohn et al., Arch. Ophthalmol., 105:983-988, 1987, the disclosure of which is hereby incorporated by reference and relied upon). On the next day, one eye of each rabbit underwent laser surgery, with the other eye serving as a comparative control. Rose bengal dye was dissolved at a concentration of 30 mg/ml in 0.9% saline solution. For the initial injection, the dye solution was administered at a total body concentration of 45 mg/kg. For the two animals in which the procedure took longer than 25 minutes, a booster injection of 15 mg/kg was administered. Irradiations of corneal vessels were carried out with an argon ion laser (Model 95, Cooper Laser-Sonica, Sunnyvale, Calif.) operated in the TEM00 mode at 514.5 nm. The beam was directed toward an aluminized mechanical shutter (AW Vincent Associates, Rochester, NY), which reflected it at a right angle through a 514.5-nm custom interference filter with a transmittance of 92% (Omega Optical, Brattleboro, VT) and then through a fused silica lens with a focal length of 7.5 cm for focusing into a 2.5-m fiberoptic cable 400 μm in diameter. In the optical fiber, the gaussian input beam profile was converted into an output beam. The output was collimated by a plano convex lens 3.5 cm in focal length and focused with a plano convex lens with a focal length of 1.0 cm. The lenses were mounted in a beam telescope attached to an X-Y positioning device (Daedal Inc., Harrison City, Pa.). The beam diameter was measured with a calibrated reticle in the ocular of a ×20 operating microscope. By observing, through a 514.5-nm rejection filter, the fluorescence of a white card impregnated with rhodamine B, the minimum diameter of the organe fluorescent spot at the focal point was determined to be 63 μm. Combining the transmission efficiencies of the three uncoated lenses (92% per lens, 76% total transmission) with those of the optical fiber and interference filter yielded a system transmission efficiency of 61.5%. This reduced the incident power level of the laser from 215 mW to an effective power level of 132 mW; this corresponded to an incident intensity at the focal point of 4.23 kW/cm^2 . During shutter closure, irradiations were carried out in 0.2-s intervals. When the shutter was opened, the low-power beam, which was reflected off an optical flat and through the optical system, was used for aligning the next vessel selected for irradiation.\nOne eye of each rabbit was subjected to laser applications that were directed toward the vascular branching points of the limbal and corneal feeder vessels adjacent to the sites of lipid deposits. The irradiated blood vessel segment was observed through the ×20 operating microcope fitted with the 514.5-nm rejection band interference filter. Initially, the irradiated segment appeared yellow-orange because the fluorescence of rose bengal had been absorbed into erythrocyte plasma membranes and plasma proteins. As platelets accumulated, the fluorescence became yellowish and less intense. The color gradually disappeared due to the exclusion of red blood cells, indicating occlusion of the vessel. A striking event that preceded the thrombus was intense vasoconstriction at the site of irradiation. Constriction of the vessel could be observed following the initial one to three laser shots in each segment. […]"}, "[3]": {"test_system": "middle cerebral artery (MCA)", "assay": "He-Ne laser photochemically induced MCA thrombosis (Example 7)", "assay_type": "in vivo, rat (male Sprague-Dawley)", "experimental": "Normally fed male Sprague-Dawley rats weighting 280-330 gm were used. Anesthesia was induced with 4% halothane and maintained with 1.5% halothane, 70% N2 O and a balance of O2 delivered through a closely fitting face mask. Polyethylene catheters were inserted retrogradely into the right external carotid artery and right femoral artery and vein. The partial pressures of O2 and CO2 and the arterial pH were measured frequently. Rectal temperature was maintained at 37° C. by means of a heating pad.\nRats were mounted on a stereotaxic frame and the right MCA was exposed by a modified subtemporal approach. A portion of the jaw was removed, and the masseter muscle was retracted downward to facilitate exposure of the MCA. The mandibular joint was kept intact so as not to disturb normal feeding. To produce MCA occlusion in these studies, a low power He-Ne laser operating in the TEM^*01 (doughnut) mode at 0.8 mW and at a wavelength of 543.5 nm (PMS Electro-Optics, Boulder, CO.) was used. The efficiency of this laser in interacting with rose bengal dye is appreciable (58%) in that its emission wavelength is near the absorption maximum of rose bengal in tissue (562 nm). The animal was moutned in a stereotaxic frame, and its right side was tilted upward by 35° in order for the laser beam to strike the proximal MCA tangentially. The ring-shaped beam was focused transversely onto the exposed MCA by two crossed cylindrical lenses of 1- and 2-inch focal length. The resulting focused spot, rectangular in shape, was ~200 μm wide (spanning the diameter of the MCA perpendicular to its axis) and 40 μm high (parallel to the MCA axis).\nMCA thrombosis was induced in two steps. First, the linear beam was focused transversely on the MCA segment just distal to the rhinal branch. The intensity of laser irradiation at the focal site was 10 W/cm^2. Rose bengal was then injected intravenously (30 mg/ml in saline, 0.67 ml/kg bw weight). An orange fluorescence was immediately observed in the irradiated MCA segment, and a white thrombus began to form within the fluorescent segment and gradually elongated rostrally. […]"}, "[4]": {"details": "rabbit, in vivo; cited from earlier work"}},
  "note": "Values joined by “and” are separate entries in the source; they are usually repeats but may differ in a detail not shown here. Identical values can stand only once.",
  "data": [
    {"smiles": "O=C([O-])c1c(Cl)c(Cl)c(Cl)c(Cl)c1-c1c2cc(I)c(=O)c(I)c-2oc2c(I)c([O-])c(I)cc12.[Na+].[Na+]", "note": "[rose bengal]", "values": [
      {"measurement": "irradiation time", "setting": "[1]; 2 mg per 100 g i.v., 50 mW, 514.5 nm", "result": "~5", "unit": "min"},
      {"measurement": "occluded segment length", "setting": "[1]; rat, in vivo", "result": "approximately 1 mm"},
      {"measurement": "No. of Laser Shots", "setting": "[2]; 60 mg/kg (45 mg/kg plus booster 15 mg/kg 25 minutes later), individual rabbit", "result": "86 and 106"},
      {"measurement": "treated corneal vessels occluded", "setting": "[2]; 21 days after laser", "result": "about 95%"},
      {"measurement": "fluorescein perfusion", "setting": "[2]; 21 days after laser, nine treated eyes", "result": "complete lack of perfusion"},
      {"measurement": "laser shots required, average", "setting": "[2]; average", "result": 85, "unit": "laser shots per quadrant"},
      {"measurement": "laser shots to vessel constriction", "setting": "[2]; each segment", "result": "one to three"},
      {"measurement": "acute and chronic inflammatory cells", "setting": "[2]; rabbit, in vivo", "result": "mild to moderate numbers"},
      {"measurement": "corneal edema or polymorphonuclear leukocyte infiltration", "setting": "[2]; rabbit, in vivo", "result": "does not produce corneal edema or polymorphonuclear leukocyte infiltration"},
      {"measurement": "inflammation along limbal vessels", "setting": "[2]; rabbit, in vivo", "result": "No signs of inflammation"},
      {"measurement": "new vessels formed in response to treatment", "setting": "[2]; rabbit, in vivo", "result": "nor were any new vessels formed"},
      {"measurement": "laser shots required to occlude the corneal neovasculature", "setting": "[2]; range", "result": "58 to 106", "unit": "laser shots per quadrant"},
      {"measurement": "times less incident intensity than photocoagulation", "setting": "[2]; vs photocoagulation", "result": 8.5, "unit": "times"},
      {"measurement": "times less total light exposure than photocoagulation", "setting": "[2]; vs photocoagulation", "result": 27.5, "unit": "times"},
      {"measurement": "time to complete MCA occlusion", "setting": "[3]; 30 mg/ml, 0.67 ml/kg i.v., 543.5 nm He-Ne, first irradiation", "result": "≤ 10", "unit": "min"},
      {"measurement": "thrombus length", "setting": "[3]; end of second irradiation", "result": "about 1.2 mm"},
      {"measurement": "thrombus length", "setting": "[3]; first irradiation", "result": "~ 400 μm"},
      {"measurement": "half-life in blood", "setting": "[4]", "result": "three"}
    ]}
  ]
}
